# Test: recombinant UMI read abundance after kanamycin selection (control-corrected) (log10(CPM+1)); higher = more efficient recombination; extreme values may be limits of the assay; sequences stand for … in AGTGCAGAGAAAATCGGCCAGTTTTCTCTGCCTGCAGTCCGCATGCCGTGGGACCCCTTGGGTTCTAACCTGTTGCCTAGATTTATGCAGCGGACTGCCTTTCTCCCAAAGTGATAAACCGG…AGGTTGGTTTCACT; site = the 11-nt donor
# How it was run: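 Values are reported as log10(CPM+1), obtained by converting sequencing counts to CPM, averaging replicates and scaling by control-derived factors. The counts came from recombinant UMIs amplified by PCR across the donor–target junction. These UMIs came from a pooled Escherichia coli screen of donor and donor-binding-loop pairs for the IS621 bridge recombinase, plated with IPTG (0.07 mM) plus kanamycin or left unselected, in two replicates each.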
# 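Also: IS621 bridge recombinase in Escherichia coli cells against a fixed T5 target plasmid.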
row,Sequence,recombinant UMI read abundance (log10)
1,TGGTCCCCATGGACCGGTTTTCCCGGTAATCCGTATTTGTA (site TGTTCCCCTTA),0.00825
2,TGGTGCACATGGACCGGTTTTCCCGGTAATCCGTATTTGCC (site TGGTGCACTGG),1.75
3,TGGTTCCCATGGACCGGTTTTCCCGGTAATCCGTATTTGTG (site AGGTTCCCTCA),0.0205
4,TGGTTCCCATGGACCGGTTTTCCCGGTAATCCGTATTTGTG (site CGGTTCCCTCA),0.0117
5,TGGTTCCCATGGACCGGTTTTCCCGGTAATCCGTATTTGTG (site GGGTTCCCTCA),0.0263
6,TGGTTCCCATGGACCGGTTTTCCCGGTAATCCGTATTTGTG (site TGGTTCCCTCA),0.0117
7,TGGTTGACATGGACCGGTTTTCCCGGTAATCCGTATTTGTA (site TGGTTGACTTA),1.04
8,TGGTTTCCATGGACCGGTTTTCCCGGTAATCCGTATTTGGG (site TGGTTTCCTCC),0.327
9,TGTACACCATGGACCGGTTTTCCCGGTAATCCGTATTTGAC (site AGTACACCTGT),0
10,TGTACACCATGGACCGGTTTTCCCGGTAATCCGTATTTGAC (site CGTACACCTGT),0
11,TGTACACCATGGACCGGTTTTCCCGGTAATCCGTATTTGAC (site GGTACACCTGT),0
12,TGTACACCATGGACCGGTTTTCCCGGTAATCCGTATTTGAC (site TATACACCTGT),0
13,TGTACACCATGGACCGGTTTTCCCGGTAATCCGTATTTGAC (site TCTACACCTGT),0
14,TGTACACCATGGACCGGTTTTCCCGGTAATCCGTATTTGAC (site TGAACACCTGT),0
15,TGTACACCATGGACCGGTTTTCCCGGTAATCCGTATTTGAC (site TGCACACCTGT),0
16,TGTACACCATGGACCGGTTTTCCCGGTAATCCGTATTTGAC (site TGGACACCTGT),0.00576
17,TGTACACCATGGACCGGTTTTCCCGGTAATCCGTATTTGAC (site TGTAAACCTGT),0
18,TGTACACCATGGACCGGTTTTCCCGGTAATCCGTATTTGAC (site TGTACAACTGT),0
19,TGTACACCATGGACCGGTTTTCCCGGTAATCCGTATTTGAC (site TGTACACCTAT),0.0116
20,TGTACACCATGGACCGGTTTTCCCGGTAATCCGTATTTGAC (site TGTACACCTCT),0.0222
21,TGTACACCATGGACCGGTTTTCCCGGTAATCCGTATTTGAC (site TGTACACCTGA),0
22,TGTACACCATGGACCGGTTTTCCCGGTAATCCGTATTTGAC (site TGTACACCTGC),0
23,TGTACACCATGGACCGGTTTTCCCGGTAATCCGTATTTGAC (site TGTACACCTGG),0
24,TGTACACCATGGACCGGTTTTCCCGGTAATCCGTATTTGAC (site TGTACACCTGT),0
25,TGTACACCATGGACCGGTTTTCCCGGTAATCCGTATTTGAC (site TGTACACCTTT),0.0141

row,Sequence,recombinant UMI read abundance (log10)
1,TGTACACCATGGACCGGTTTTCCCGGTAATCCGTATTTGAC (site TGTACAGCTGT),0
2,TGTACACCATGGACCGGTTTTCCCGGTAATCCGTATTTGAC (site TGTACATCTGT),0
3,TGTACACCATGGACCGGTTTTCCCGGTAATCCGTATTTGAC (site TGTACCCCTGT),0
4,TGTACACCATGGACCGGTTTTCCCGGTAATCCGTATTTGAC (site TGTACGCCTGT),0
5,TGTACACCATGGACCGGTTTTCCCGGTAATCCGTATTTGAC (site TGTACTCCTGT),0
6,TGTACACCATGGACCGGTTTTCCCGGTAATCCGTATTTGAC (site TGTAGACCTGT),0
7,TGTACACCATGGACCGGTTTTCCCGGTAATCCGTATTTGAC (site TGTATACCTGT),0
8,TGTACACCATGGACCGGTTTTCCCGGTAATCCGTATTTGAC (site TGTCCACCTGT),0
9,TGTACACCATGGACCGGTTTTCCCGGTAATCCGTATTTGAC (site TGTGCACCTGT),0
10,TGTACACCATGGACCGGTTTTCCCGGTAATCCGTATTTGAC (site TGTTCACCTGT),0
11,TGTACACCATGGACCGGTTTTCCCGGTAATCCGTATTTGAC (site TTTACACCTGT),0
12,TGTACACCATGGACCGGTTTTCCCGGTAATCCGTATTTGAG (site TGTACACCTAT),0.0116
13,TGTACACCATGGACCGGTTTTCCCGGTAATCCGTATTTGAG (site TGTACACCTCT),0.00855
14,TGTACACCATGGACCGGTTTTCCCGGTAATCCGTATTTGAG (site TGTACACCTGT),0
15,TGTACACCATGGACCGGTTTTCCCGGTAATCCGTATTTGAG (site TGTACACCTTT),0.0116
16,TGTACACCATGGACCGGTTTTCCCGGTAATCCGTATTTGGC (site TGTACACCTGA),0
17,TGTACACCATGGACCGGTTTTCCCGGTAATCCGTATTTGGC (site TGTACACCTGC),0.00484
18,TGTACACCATGGACCGGTTTTCCCGGTAATCCGTATTTGGC (site TGTACACCTGG),0
19,TGTACACCATGGACCGGTTTTCCCGGTAATCCGTATTTGGC (site TGTACACCTGT),0
20,TGTACGCCATGGACCGGTTTTCCCGGTAATCCGTATTTGAC (site TGTACACCTGT),0
21,TGTACGCCATGGACCGGTTTTCCCGGTAATCCGTATTTGAC (site TGTACCCCTGT),0
22,TGTACGCCATGGACCGGTTTTCCCGGTAATCCGTATTTGAC (site TGTACGCCTGT),0
23,TGTACGCCATGGACCGGTTTTCCCGGTAATCCGTATTTGAC (site TGTACTCCTGT),0
24,TGTACGCCATGGACCGGTTTTCCCGGTAATCCGTATTTGTA (site TGTACGCCTTA),0.00598
25,TGTACTGCATGGACCGGTTTTCCCGGTAATCCGTATTTGCC (site TGTACTGCTGG),0.865

row,Sequence,recombinant UMI read abundance (log10)
1,TGTACTTCATGGACCGGTTTTCCCGGTAATCCGTATTTGGT (site TGTACTTCTAC),1.38
2,TGTAGTGCATGGACCGGTTTTCCCGGTAATCCGTATTTGCC (site TGTAGTGCTGG),1.56
3,TGTAGTGCATGGACCGGTTTTCCCGGTAATCCGTATTTGCT (site TGTAGTGCTAG),1.16
4,TGTATCACATGGACCGGTTTTCCCGGTAATCCGTATTTGAA (site TGTATCACTTT),0.00408
5,TGTATCTCATGGACCGGTTTTCCCGGTAATCCGTATTTGGG (site TGTATCTCTCC),0.0516
6,TGTATGGCATGGACCGGTTTTCCCGGTAATCCGTATTTGAC (site TGTATGGCTGT),1.25
7,TGTCACCCATGGACCGGTTTTCCCGGTAATCCGTATTTGGC (site TGTCACCCTGC),0
8,TGTCCAACATGGACCGGTTTTCCCGGTAATCCGTATTTGTA (site AGTCCAACTTA),0.0568
9,TGTCCAACATGGACCGGTTTTCCCGGTAATCCGTATTTGTA (site CGTCCAACTTA),0.338
10,TGTCCAACATGGACCGGTTTTCCCGGTAATCCGTATTTGTA (site GGTCCAACTTA),0.0289
11,TGTCCAACATGGACCGGTTTTCCCGGTAATCCGTATTTGTA (site TGTCCAACTTA),0.208
12,TGTCCGGCATGGACCGGTTTTCCCGGTAATCCGTATTTGGC (site TGACCGGCTGC),0
13,TGTCCGGCATGGACCGGTTTTCCCGGTAATCCGTATTTGGC (site TGCCCGGCTGC),0
14,TGTCCGGCATGGACCGGTTTTCCCGGTAATCCGTATTTGGC (site TGGCCGGCTGC),0
15,TGTCCGGCATGGACCGGTTTTCCCGGTAATCCGTATTTGGC (site TGTCCGGCTGC),0.541
16,TGTCGAGCATGGACCGGTTTTCCCGGTAATCCGTATTTGTA (site TGTCGAGCTTA),0.92
17,TGTCTACCATGGACCGGTTTTCCCGGTAATCCGTATTTGCG (site TGTCTACCTCG),0.0129
18,TGTCTTGCATGGACCGGTTTTCCCGGTAATCCGTATTTGGG (site TGTCTTGCTCC),0.016
19,TGTGAATCATGGACCGGTTTTCCCGGTAATCCGTATTTGTC (site TGTGAATCTGA),0.782
20,TGTGCCACATGGACCGGTTTTCCCGGTAATCCGTATTTGTT (site TGTGCCACTAA),0.0457
21,TGTGCGGCATGGACCGGTTTTCCCGGTAATCCGTATTTGCT (site TATGCGGCTAG),0.00771
22,TGTGCGGCATGGACCGGTTTTCCCGGTAATCCGTATTTGCT (site TCTGCGGCTAG),0.00448
23,TGTGCGGCATGGACCGGTTTTCCCGGTAATCCGTATTTGCT (site TGTGCGGCTAG),0.57
24,TGTGCGGCATGGACCGGTTTTCCCGGTAATCCGTATTTGCT (site TTTGCGGCTAG),0.00385
25,TGTGGTCCATGGACCGGTTTTCCCGGTAATCCGTATTTGTC (site TGTGGTCCTGA),0

# From the supplement of paper PMC11208160
